Results: patent EP3597653A1, “CYCLIC INHIBITORS OF HEPATITIS B VIRUS” (IRBM S.P.A., priority 2018, dated 2020)

tested on: HBV; assay: HBV inhibition assay in HepAD38 cells (extracellular HBV DNA by direct qPCR); assay type: cell-based; conditions: Hepatitis B virus, 8-point dose-response curve, 96 hours, read-out: HBV inh EC50
Procedure, shortened: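 HepAD38 cells (HepG2, tetracycline-off HBV) induced in tetracycline-free medium, treated 96 h at 37 °C with compound, 0.5% DMSO. Extracellular HBV DNA quantified by direct SYBR qPCR of lysed supernatant, as % of untreated; EC50 from 8-point 1:2 curves; cytotoxicity by CellTiter-Blue.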

| SMILES | EC50 [nM] |
| --- | --- |
| Cc1cc(C(=O)Nc2cc(F)c(F)c(F)c2)cc2c1NCNS2(=O)=O [Example E88, 5-methyl-N-(3,4,5-trifluorophenyl)-3,4-dihydro-2H-benzo[e][1,2,4]thiadiazine-7-carboxamide 1,1-dioxide] | > 1000 |

same assay, conditions: Hepatitis B virus, compound at 0.1 µM, 96 hours, relative to non-treated reference, read-out: Anti HBV Activity (conc µM)

| SMILES | inhibition at 0.1 µM [%] |
| --- | --- |
| O=C(Nc1cc(F)c(F)c(F)c1)c1ccc2c(c1)S(=O)(=O)N([C@H]1CCNC1)C(=O)N2 [Example E84, (S)-3-oxo-2-(pyrrolidin-3-yl)-N-(3,4,5-trifluorophenyl)-3,4-dihydro-2H-benzo[e][1,2,4]thiadiazine-7-carboxamide 1,1-dioxide] | < 50 |
| CN1CC[C@H](N2C(=O)Nc3ccc(C(=O)Nc4cc(F)c(F)c(F)c4)cc3S2(=O)=O)C1 [Example E85, (S)-2-(1-methylpyrrolidin-3-yl)-3-oxo-N-(3,4,5-trifluorophenyl)-3,4-dihydro-2H-benzo[e][1,2,4]thiadiazine-7-carboxamide 1,1-dioxide] | < 50 |

same assay, conditions: Hepatitis B virus, compound at 0.5 µM, 96 hours, relative to non-treated reference, read-out: Anti HBV Activity (conc µM)

| SMILES | inhibition at 0.5 µM [%] |
| --- | --- |
| C[C@@H](N1C(=O)Nc2ccc(C(=O)Nc3cc(F)c(F)c(F)c3)cc2S1(=O)=O)C(F)(F)F [Example E77, (R)-3-oxo-N-(3,4,5-trifluorophenyl)-2-(1,1,1-trifluoropropan-2-yl)-3,4-dihydro-2H-benzo[e][1,2,4]thiadiazine-7-carboxamide 1,1-dioxide] | < 50 |
| C[C@H](N1C(=O)Nc2ccc(C(=O)Nc3cc(F)c(F)c(F)c3)cc2S1(=O)=O)C(F)(F)F [Example E78, (S)-3-oxo-N-(3,4,5-trifluorophenyl)-2-(1,1,1-trifluoropropan-2-yl)-3,4-dihydro-2H-benzo[e][1,2,4]thiadiazine-7-carboxamide 1,1-dioxide] | > 50 |
| O=C(Nc1cc(F)c(F)c(F)c1)c1ccc2c(c1)S(=O)(=O)N(C1COC1)C(=O)N2 [Example E82, 2-(oxetan-3-yl)-3-oxo-N-(3,4,5-trifluorophenyl)-3,4-dihydro-2H-benzo[e][1,2,4]thiadiazine-7-carboxamide 1,1-dioxide] | > 50 |
| CC(C)(C)OC(=O)N1CC[C@H](N2C(=O)Nc3ccc(C(=O)Nc4cc(F)c(F)c(F)c4)cc3S2(=O)=O)C1 [Example E83, tert-butyl (S)-3-(1,1-dioxido-3-oxo-7-((3,4,5-trifluorophenyl)carbamoyl)-3,4-dihydro-2H-benzo[e][1,2,4]thiadiazin-2-yl)pyrrolidine-1-carboxylate] | < 50 |
| O=C(Nc1cc(F)c(F)c(F)c1)c1ccc2c(c1)S(=O)(=O)N(C1CC(O)C1)C(=O)N2 (stereo not drawn) [Example E86, 2-(3-hydroxycyclobutyl)-3-oxo-N-(3,4,5-trifluorophenyl)-3,4-dihydro-2H-benzo[e][1,2,4]thiadiazine-7-carboxamide 1,1-dioxide] | > 50 |
| O=C(Nc1cc(F)c(F)c(F)c1)c1ccc2c(c1)S(=O)(=O)N([C@H]1CC[C@@H](O)CC1)C(=O)N2 [Example E87, cis-2-(4-hydroxycyclohexyl)-3-oxo-N-(3,4,5-trifluorophenyl)-3,4-dihydro-2H-benzo[e][1,2,4]thiadiazine-7-carboxamide 1,1-dioxide] | > 50 |

same assay, conditions: Hepatitis B virus, compound at 1 µM, 96 hours, relative to non-treated reference, read-out: Anti HBV Activity (conc µM)

| SMILES | inhibition at 1 µM [%] |
| --- | --- |
| O=C(Nc1cc(F)c(F)c(F)c1)c1ccc2c(c1)S(=O)(=O)N(C1CC1)C(=O)N2 [Example E79, 2-cyclopropyl-3-oxo-N-(3,4,5-trifluorophenyl)-3,4-dihydro-2H-benzo[e][1,2,4]thiadiazine-7-carboxamide 1,1-dioxide] | < 50 |
| O=C(Nc1cc(F)c(F)c(F)c1)c1ccc2c(c1)S(=O)(=O)N([C@H]1CC[C@H](O)CC1)C(=O)N2 [Example E80, trans-2-(4-hydroxycyclohexyl)-3-oxo-N-(3,4,5-trifluorophenyl)-3,4-dihydro-2H-benzo[e][1,2,4]thiadiazine-7-carboxamide 1,1-dioxide] | > 50 |
| O=C(Nc1cc(F)c(F)c(F)c1)c1ccc2c(c1)S(=O)(=O)N(C1CCNCC1)C(=O)N2 [Example E81, 3-oxo-2-(piperidin-4-yl)-N-(3,4,5-trifluorophenyl)-3,4-dihydro-2H-benzo[e][1,2,4]thiadiazine-7-carboxamide 1,1-dioxide] | > 50 |
